Experimental data published in patent US20200315233A1, “METHODS AND COMPOSITIONS FOR TREATMENT OF HYPERCALCIURIA AND NEPHROLITHIASIS” (Ana Pharmaceuticals, Inc., priority 2016, published 2020).

Columns and labels:
[1] = system: patients with nephrolithiasis that were found to have hypercalciuria (>200 mg/24 hr); test: 24 hour urine calcium before and on vitamin K2 (MK7, MK4) in nephrolithiasis patients with hypercalciuria; type: in vivo, human
Source text: Patients with hypercalciuria who were not on anticoagulants were routinely recommended vitamin K2 supplementation. […] All patients also received standard treatments for any other stone risk factor found in their work-up. As is routine, these patients were asked to repeat the 24 hr urine test, to evaluate response to treatment. […] This compared favorably to the 30-50% expected decrease in calcium when a thiazide diuretic is prescribed. See Martins, M. C., et al., Br J Urol, 1996. 78(2): p. 176-80. Furthermore, the calcium lowering effect of vitamin K2 was independent of the presence and treatment of other stone risk factors.
The average decrease in urine calcium in all eight patients was about 43%. […] (Table 1)

[2] = system: hypercalciuric subjects; settings: cited from earlier work
[3] = MK7 100-150 mcg daily or bid for at least 3 weeks

CC(C)=CCC/C(C)=C/CC/C(C)=C/CC/C(C)=C/CC1=C(C)C(=O)c2ccccc2C1=O [MK4]
% difference of urine calcium, high dose MK4 vs low dose MK7 ([1]; F 74, MK4 15 mg daily vs MK7 120 mcg daily, same background): −40% | High Dose MK4 Urine Calcium ([1]; F 74, same background regimen, changed from MK7 120 mcg daily to MK4 15 mg daily): 191 mg/24 hr | additional decrease in 24 hour urine calcium excretion ([1]; one patient, change from MK7 120 mcg daily to MK4 15 mg daily): about 40%

CC(C)=CCC/C(C)=C/CC/C(C)=C/CC/C(C)=C/CC/C(C)=C/CC/C(C)=C/CC/C(C)=C/CC1=C(C)C(=O)c2ccccc2C1=O [MK7]
On Vitamin K Urine Calcium ([1]; Case 1, no prior regimen, before 650 mg/24 hr, on allopurinol 300 mg daily + MK7 100 mcg daily): 262 mg/24 hr | % diff of urine calcium ([1]; Case 1, on allopurinol 300 mg daily + MK7 100 mcg daily vs before vitamin K): −60% | % diff of urine calcium ([1]; Case 2, MK7 50 mcg bid with KCitrate, MgOxide, MgCitrate, Vitamin B6, allopurinol vs before vitamin K): −54% | On Vitamin K Urine Calcium ([1]; Case 2, no prior regimen, before 312 mg/24 hr, on KCitrate 99 mg bid, MgOxide 90 mg bid, MgCitrate 90 mg bid, Vitamin B6 7.5 mg bid, allopurinol 300 mg daily, MK7 50 mcg bid): 145 mg/24 hr | % diff of urine calcium ([1]; Case 3, KCitrate 200 mg daily + MK7 120 mcg bid vs before vitamin K): −51% | On Vitamin K Urine Calcium ([1]; Case 3, no prior regimen, before 321 mg/24 hr, on KCitrate 200 mg daily + MK7 120 mcg bid): 158 mg/24 hr | % diff of urine calcium ([1]; Case 4, KCitrate 1080 mg tid + MK7 100 mcg bid vs before vitamin K): −61% | On Vitamin K Urine Calcium ([1]; Case 4, before KCitrate 1080 mg bid, 320 mg/24 hr, on KCitrate 1080 mg tid + MK7 100 mcg bid): 124 mg/24 hr | On Vitamin K Urine Calcium ([1]; Case 5, before 326 mg/24 hr on allopurinol 300 mg daily, KCitrate, MgOxide, MgCitrate, Vitamin B6, on allopurinol 100 mg daily, same background + MK7 120 mcg bid): 225 mg/24 hr | % diff of urine calcium ([1]; Case 6, MK7 120 mcg bid with HCTZ, KCitrate, MgOxide, MgCitrate, Vitamin B6 vs before vitamin K): +2% | On Vitamin K Urine Calcium ([1]; Case 6, before HCTZ 12.5 mg daily, 332 mg/24 hr, on HCTZ 12.5 mg daily, KCitrate 99 mg bid, MgOxide 90 mg bid, MgCitrate 90 mg bid, Vitamin B6 7.5 mg bid, MK7 120 mcg bid): 340 mg/24 hr | % diff of urine calcium ([1]; Case 7, MK7 150 mcg daily added to stable background regimen vs before vitamin K): −73% | On Vitamin K Urine Calcium ([1]; Case 7, before 314 mg/24 hr on KCitrate, MgOxide, MgCitrate, Vitamin B6, HCTZ 25 mg bid, prednisone, vitD3, allopurinol, same regimen + MK7 150 mcg daily): 84 mg/24 hr | % diff of urine calcium ([1]; Case 8, MK7 120 mcg daily with CaCitrate, KCitrate, MgOxide, MgCitrate, Vitamin B6 vs before vitamin K): −15% | On Vitamin K Urine Calcium ([1]; Case 8, before CaCitrate 630 mg bid, 376 mg/24 hr, on CaCitrate 630 mg tid, KCitrate 99 mg bid, MgOxide 90 mg bid, MgCitrate 90 mg bid, Vitamin B6 7.5 mg bid, MK7 120 mcg daily): 321 mg/24 hr | Low Dose MK7 UCa ([1]; F 74, CaCitrate 630 mg tid, KCitrate 99 mg bid, MgOxide 90 mg bid, MgCitrate 90 mg bid, Vitamin B6 7.5 mg bid, MK7 120 mcg daily): 321 mg/24 hr | average decrease in urine calcium in all eight patients [1, 3]: about 43% | increase in urinary calcium in the one patient that showed no response [1, 3]: 2% | patients that exhibited a decrease in urinary calcium of greater than about 50% [1, 3]: 5 out of 8 | % diff of urine calcium, mean ([1]; mean of cases 1-8, on vitamin K (MK7) vs before): −43% | % diff of urine calcium, median ([1]; median of cases 1-8, on vitamin K (MK7) vs before): −52% | average decrease in the excretion of calcium in the urine ([1]; seven of the eight patients, 24 hr urine): 49%

CC1=C(C/C=C(\C)CCC[C@H](C)CCC[C@H](C)CCCC(C)C)C(=O)c2ccccc2C1=O [vitamin K1]
subjects that had a decrease in urinary calcium ([2]; hypercalciuric subjects): 60% | average reduction in urinary calcium ([2]; patients with a similar level of pre-treatment hypercalciuria): less than 15%

vitamin K2
decrease of urinary calcium excretion ([1]; cases 1, 2 and 3, vitamin K administered together with other agents): > 50% | decrease in urine calcium levels ([1]; many patients, within a month of therapy): more than 40%
